Test results: patent US10457679B2, “Imidazo[4,5-c]quinolin-2-one compounds and their use in treating cancer” (AstraZeneca AB, priority 2015, dated 2019)
Read-outs that look alike come from different tables or passages of the source.

Tests used:
mTOR = target: T1, mTOR (Homo sapiens, UniProt P42345); test: Assay d) mTOR cellular potency (phospho-AKT Ser473 in MDA-MB-468 cells); assay type: cell-based
T1 construct: endogenous in cells; host or cells: MDA-MB-468 cells (ATCC HTB 132)
Protocol: Assay d): mTOR Cellular Potency
This assay was used to measure mTOR inhibition in cells. The aim of the phospho-AKT cell based mechanism of action assay using the Acumen Explorer is to identify inhibitors of either PI3Kα or mTOR-Rictor (Rapamycin insensitive companion of mTOR). This is measured by any decrease in the phosphorylation of the Akt protein at Ser473 (AKT lies downstream of PI3Kα in the signal transduction pathway) in the MDA-MB-468 cells following treatment with compound. Method Details:
MDA-MB-468 cells (human breast adenocarcinoma #ATCC HTB 132) were seeded at 1500 cells/well in 40 μl of DMEM containing 10% FBS and 1% glutamine into Greiner 384 well black flat-bottomed plates. Cell plates were incubated for 18 h in a 37° C. incubator before dosing with compounds of Formula (I) in 100% DMSO using acoustic dispensing. Compounds were dosed in a 12 point concentration range into a randomised plate map. Control wells were generated either by dosing of 100% DMSO (max signal) or addition of a reference compound (a PI3K-β inhibitor) that completely eliminated the pAKT signal (min control). Compounds were then tested by one of two assay protocols A or B:
Plates were incubated at 37° C. for 2 h; cells were then fixed by the addition of 10 μl of a 3.7% formaldehyde solution. After 30 minutes the plates were washed with PBS using a Tecan PW384 plate washer. Wells were blocked and cells permeabilised with the addition of 40 μl of PBS containing 0.5% Tween20 and 1% Marvel™ (dried milk powder) and incubated for 60 minutes at r.t. The plates were washed with PBS containing 0.5% (v/v) Tween20 and 20 μl rabbit anti-phospho AKT Ser473 (Cell Signalling Technologies, #3787) in same PBS-Tween+1% Marvel™ was added and incubated overnight at 4° C.
Plates were washed 3 times with PBS+0.05% Tween 20 using a Tecan PW384. 20 μl of secondary antibody Alexa Fluor 488 anti-Rabbit (Molecular Probes, #A11008) diluted in PBS+0.05% Tween20 containing 1% Marvel™ was added to each well and incubated for 1 h at r.t. Plates were washed three times as before then 20 μl PBS added to each well and plates sealed with a black plate sealer.
The plates were read on an Acumen plate reader as soon as possible, measuring green fluorescence after excitation with 488 nm laser. Using this system IC50 values were generated and quality of plates was determined by control wells. Reference compounds were run each time to monitor assay performance.
The cell plates were then incubated for 2 h at 37° C. before being fixed by the addition of 20 μl 3.7% formaldehyde in PBS/A (1.2% final concentration), followed by a 30 minute room temperature incubation, and then a 2× wash with 150 μl PBS/A using a BioTek ELx406 platewasher. Cells were permeabilised and blocked with 20 μl of assay buffer (0.1% Triton X-100 in PBS/A+1% BSA) for 1 h at room temperature, and then washed 1× with 50 μl PBS/A. Primary phospho-AKT (Ser473) D9E XP® rabbit monoclonal antibody (#4060, Cell Signaling Technology) was diluted 1:200 in assay buffer, 20 μl added per well, and plates were incubated at 4° C. overnight. Cell plates were washed 3× with 200 μl PBS/T, then 20 μl 1:750 dilution in assay buffer of Alexa Fluor® 488 goat anti-rabbit IgG secondary antibody (#A11008, Molecular Probes, Life Technologies), with a 1:5000 dilution of Hoechst 33342, was added per well. Following a 1 h incubation at room temperature, plates were washed 3× with 200 μl PBS/T, and 40 μl PBS w/o Ca, Mg and Na Bicarb (Gibco #14190-094) was added per well.
Stained cell plates were covered with black seals, and then read on the Cell Insight imaging platform (Thermo Scientific), with a 10× objective. The primary channel (Hoechst blue fluorescence 405 nM, BGRFR_386_23) was used to Autofocus and to count number of events (this provided information about cytotoxicity of the compounds tested). The secondary channel (Green 488 nM, BGRFR_485_20) measured pAKT staining. […]

PI3K-α = PI3K-α (Homo sapiens, UniProt P42336); test: Assay c) PI3K cellular potency (phospho-Akt T308 ELISA in BT474 cells); assay type: cell-based; settings: BT474 cells, 2 h, phospho-AKT T308; may be geometric mean of several tests; read-out: Assay c) PI3Kα Cell IC50
Chain of PI3K-α (P42336 whole entry): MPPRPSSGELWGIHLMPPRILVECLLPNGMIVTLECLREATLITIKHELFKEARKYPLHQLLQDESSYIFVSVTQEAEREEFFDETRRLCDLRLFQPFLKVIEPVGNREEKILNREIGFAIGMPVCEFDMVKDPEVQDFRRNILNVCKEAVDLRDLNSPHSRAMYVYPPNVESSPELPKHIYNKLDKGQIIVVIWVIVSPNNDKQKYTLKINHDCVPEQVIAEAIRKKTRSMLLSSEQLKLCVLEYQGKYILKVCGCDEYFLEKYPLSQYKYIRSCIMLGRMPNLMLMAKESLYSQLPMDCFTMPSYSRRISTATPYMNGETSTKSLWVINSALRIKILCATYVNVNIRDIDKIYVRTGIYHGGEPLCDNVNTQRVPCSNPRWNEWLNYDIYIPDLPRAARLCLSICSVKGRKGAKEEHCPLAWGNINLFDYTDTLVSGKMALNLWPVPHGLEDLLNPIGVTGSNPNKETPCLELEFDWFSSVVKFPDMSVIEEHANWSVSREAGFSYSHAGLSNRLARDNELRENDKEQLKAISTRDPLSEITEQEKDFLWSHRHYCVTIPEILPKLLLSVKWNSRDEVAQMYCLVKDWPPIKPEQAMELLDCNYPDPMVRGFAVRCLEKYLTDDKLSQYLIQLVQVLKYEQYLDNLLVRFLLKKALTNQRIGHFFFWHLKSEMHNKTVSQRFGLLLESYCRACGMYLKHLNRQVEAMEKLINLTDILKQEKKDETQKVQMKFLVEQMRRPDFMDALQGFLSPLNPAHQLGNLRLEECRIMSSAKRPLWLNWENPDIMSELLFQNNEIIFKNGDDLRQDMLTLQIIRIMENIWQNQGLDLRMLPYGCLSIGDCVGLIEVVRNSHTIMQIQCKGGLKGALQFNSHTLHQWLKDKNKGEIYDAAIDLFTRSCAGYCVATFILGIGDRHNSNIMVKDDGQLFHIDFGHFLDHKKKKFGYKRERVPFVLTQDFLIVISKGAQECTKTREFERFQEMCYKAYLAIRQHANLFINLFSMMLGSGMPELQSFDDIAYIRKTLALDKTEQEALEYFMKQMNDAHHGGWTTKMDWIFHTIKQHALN
Description: Assay c): PI3K Cellular Potency
This assay was used to measure PI3K-α inhibition in cells. PDK1 was identified as the upstream activation loop kinase of protein kinase B (Akt 1), which is essential for the activation of PKB. Activation of the lipid kinase phosphoinositide 3 kinase (PI3K) is critical for the activation of PKB by PDK1.
Following ligand stimulation of receptor tyrosine kinases, PI3K is activated, which converts PIP2 to PIP3, which is bound by the PH domain of PDK1 resulting in recruitment of PDK1 to the plasma membrane where it phosphorylates AKT at Thr308 in the activation loop.
The aim of this cell-based mode of action assay is to identify compounds that inhibit PDK activity or recruitment of PDK1 to membrane by inhibiting PI3K activity. Phosphorylation of phospho-Akt (T308) in BT474c cells following treatment with compounds for 2 h is a direct measure of PDK1 and indirect measure of PI3K activity.
BT474 cells (human breast ductal carcinoma, ATCC HTB-20) were seeded into black 384 well plates (Costar, #3712) at a density of 5600 cells/well in DMEM containing 10% FBS and 1% glutamine and allowed to adhere overnight.
The following morning compounds in 100% DMSO were added to assay plates by acoustic dispensing. After a 2 h incubation at 37° C. and 5% CO2, the medium was aspirated and the cells were lysed with a buffer containing 25 mM Tris, 3 mM EDTA, 3 mM EGTA, 50 mM sodium fluoride, 2 mM Sodium orthovanadate, 0.27M sucrose, 10 mM β-glycerophosphate, 5 mM sodium pyrophosphate, 0.5% Triton X-100 and complete protease inhibitor cocktail tablets (Roche #04 693 116 001, used 1 tab per 50 ml lysis buffer).
After 20 minutes, the cell lysates were transferred into ELISA plates (Greiner #781077) which had been pre-coated with an anti total-AKT antibody in PBS buffer and non-specific binding was blocked with 1% BSA in PBS containing 0.05% Tween 20. Plates were incubated over night at 4° C. The next day the plates were washed with PBS buffer containing 0.05% Tween 20 and further incubated with a mouse monoclonal anti-phospho AKT T308 for 2 h. Plates were washed again as above before addition of a horse anti-mouse-HRP conjugated secondary antibody. Following a 2 h incubation at r.t., plates were washed and QuantaBlu substrate working solution (Thermo Scientific #15169, prepared according to provider's instructions) was added to each well. The developed fluorescent product was stopped after 60 minutes by addition of Stop solution to the wells. Plates were read using a Tecan Safire plate reader using 325 nm excitation and 420 nm emission wavelengths respectively. Except where specified, reagents contained in the Path Scan Phospho AKT (Thr308) sandwich ELISA kit from Cell Signalling (#7144) were used in this ELISA assay.

[1] = pAKT Ser473, Protocol B (*); read-out: Assay d) mTOR Cell IC50
[2] = pAKT Ser473, Protocol A (§); read-out: Assay d) mTOR Cell IC50

IC50 (mTOR; [1]) [µM] | IC50 (PI3K-α) [µM] | IC50 (mTOR; [2]) [µM] | SMILES
> 30 | > 30 | – | CC(C)n1c(=O)n(C)c2cnc3cc(F)c(-c4ccc(OCCCN5CCCCC5)nc4F)cc3c21 [Example 14, 7-fluoro-8-[2-fluoro-6-[3-(1-piperidyl)propoxy]-3-pyridyl]-1-isopropyl-3-methyl-imidazo[4,5-c]quinolin-2-one]
3.49 | 6.18 | – | CC(C)n1c(=O)n(C)c2cnc3ccc(-c4ccc(OCCCN(C)C)nc4F)cc3c21 [Example 10, 8-[6-[3-(dimethylamino)propoxy]-2-fluoro-3-pyridyl]-1-isopropyl-3-methyl-imidazo[4,5-c]quinolin-2-one]
– | 11.4 | > 20 | CC(C)n1c(=O)n(C)c2cnc3cc(F)c(-c4ccc(OCCCN5CCCC5)nc4)cc3c21 [Example 3, 7-Fluoro-1-isopropyl-3-methyl-8-[6-(3-pyrrolidin-1-ylpropoxy)-3-pyridyl]imidazo[4,5-c]quinolin-2-one]
– | 5.75 | > 5.19 | CC(C)n1c(=O)n(C)c2cnc3ccc(-c4ccc(OCCCN5CCCCC5)nc4F)cc3c21 [Example 9, 8-[2-Fluoro-6-[3-(1-piperidyl)propoxy]-3-pyridyl]-1-isopropyl-3-methyl-imidazo[4,5-c]quinolin-2-one]
3.19 | 0.222 | – | CC(C)n1c(=O)n(C)c2cnc3ccc(-c4ccc(OCCCN5CCCC5)nc4)cc3c21 [Example 7, 1-isopropyl-3-methyl-8-[6-(3-pyrrolidin-1-ylpropoxy)-3-pyridyl]imidazo[4,5-c]quinolin-2-one]
> 10 | 2.89 | – | CC(C)n1c(=O)n(C)c2cnc3ccc(-c4ccc(OCCCN5CCCC5)nc4F)cc3c21 [Example 12, 8-[2-fluoro-6-(3-pyrrolidin-1-ylpropoxy)-3-pyridyl]-1-isopropyl-3-methyl-imidazo[4,5-c]quinolin-2-one]

More lines, now with the values behind:

SMILES | IC50 (mTOR; [1]) [µM] | IC50 (PI3K-α) [µM] | IC50 (mTOR; [2]) [µM]
CC(C)n1c(=O)n(C)c2cnc3ccc(-c4ccc(OCCCN5CCC5)nc4)cc3c21 [Example 8, 8-[6-[3-(Azetidin-1-yl)propoxy]-3-pyridyl]-1-isopropyl-3-methyl-imidazo[4,5-c]quinolin-2-one] | 0.405 | 0.661 | –
CC(C)n1c(=O)n(C)c2cnc3cc(F)c(-c4ccc(OCCCN5CCCCC5)nc4)cc3c21 [Example 2, 7-Fluoro-1-isopropyl-3-methyl-8-[6-[3-(1-piperidyl)propoxy]-3-pyridyl]imidazo[4,5-c]quinolin-2-one] | > 30 | > 12 | –
CC(C)n1c(=O)n(C)c2cnc3cc(F)c(-c4ccc(OCCCN5CCC5)nc4)cc3c21 [Example 4, 8-[6-[3-(azetidin-1-yl)propoxy]-3-pyridyl]-7-fluoro-1-isopropyl-3-methyl-imidazo[4,5-c]quinolin-2-one] | – | 4.52 | > 30
CC(C)n1c(=O)[nH]c2cnc3cc(F)c(-c4ccc(OCCCN5CCCCC5)nc4)cc3c21 [Example 18, 7-Fluoro-1-isopropyl-8-[6-[3-(1-piperidyl)propoxy]-3-pyridyl]-3H-imidazo[4,5-c]quinolin-2-one] | – | > 30 | > 30
CC(C)n1c(=O)n(C)c2cnc3cc(F)c(-c4ccc(OCCCN5CCCC5)nc4F)cc3c21 [Example 13, 7-fluoro-8-[2-fluoro-6-(3-pyrrolidin-1-ylpropoxy)-3-pyridyl]-1-isopropyl-3-methyl-imidazo[4,5-c]quinolin-2-one] | > 30 | 22.9 | –
CC(C)n1c(=O)n(C)c2cnc3cc(F)c(-c4ccc(OCCC[N+]5([O-])CCCCC5)nc4)cc3c21 [Metabolite A, 7-Fluoro-1-isopropyl-3-methyl-8-[6-[3-(1-oxidopiperidin-1-ium-1-yl)propoxy]-3-pyridyl]imidazo[4,5-c]quinolin-2-one] | > 30 | 27.8 | –
CC(C)n1c(=O)n(C)c2cnc3ccc(-c4ccc(OCCCN(C)C)nc4)cc3c21 [Example 6, 8-[6-[3-(dimethylamino)propoxy]-3-pyridyl]-1-isopropyl-3-methyl-imidazo[4,5-c]quinolin-2-one] | – | 0.184 | > 3.12
CC(C)n1c(=O)n(C)c2cnc3cc(F)c(-c4ccc(OCCCN5CCC5)nc4F)cc3c21 [Example 16, 8-[6-[3-(azetidin-1-yl)propoxy]-2-fluoro-3-pyridyl]-7-fluoro-1-isopropyl-3-methyl-imidazo[4,5-c]quinolin-2-one] | – | 9.08 | > 29.9
